# Reference: ChEMBL document CHEMBL1201862, “PubChem BioAssay data set” (2004)
# Active and inactive are the calls of the source.
# Legend:
# [1] = cytotoxicity in HepG2 cells, dose response, cytotoxicity control, cell-based, cherry-picked samples (AID 1053183); format: functional
# [2] = P. falciparum Dd2 growth inhibitors, dose response, SYBR Green, cherry-picked samples (AID 1159567); format: functional, cell-based
# [3] = HepG2 cell cytotoxicity, dose response, cytotoxicity control, cherry-picked samples (AID 1159577); format: functional, cell-based
# [4] = inhibitors of TNFa-stimulated NF-kB luciferase reporter, dose response, selectivity assay for EBV LMP1 NF-kB inhibitor project, HEK293 LMP1 reporter cells, dry powder, set 2 (AID 624369); format: functional
# [5] = HEK293 cell viability, dose response, counter-screen for EBV LMP1 inhibitor project, dry powder, set 2 (AID 624374); format: functional
# [6] = LMP1-driven NF-kB reporter inhibition, dose response, cell-based, luciferase reporter, luminescence, dry powder, set 2 (AID 624376); format: functional
# [7] = inhibitors of LMP1-driven NF-kB reporter, dose response, cell-based, EBV LMP1, luciferase, dry powder, set 2 (AID 624361); format: functional
# [8] = cells; format: functional, cell-based
# [9] = molecular target: Nuclear receptor subfamily 0 group B member 1 (Homo sapiens, UniProt P51843); format: functional, cell-based;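 further: HEK293T cells transfected with SF-1 and DAX-1 plus StAR promoter luciferase reporter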
# Nuclear receptor subfamily 0 group B member 1, sequence (P51843 whole entry): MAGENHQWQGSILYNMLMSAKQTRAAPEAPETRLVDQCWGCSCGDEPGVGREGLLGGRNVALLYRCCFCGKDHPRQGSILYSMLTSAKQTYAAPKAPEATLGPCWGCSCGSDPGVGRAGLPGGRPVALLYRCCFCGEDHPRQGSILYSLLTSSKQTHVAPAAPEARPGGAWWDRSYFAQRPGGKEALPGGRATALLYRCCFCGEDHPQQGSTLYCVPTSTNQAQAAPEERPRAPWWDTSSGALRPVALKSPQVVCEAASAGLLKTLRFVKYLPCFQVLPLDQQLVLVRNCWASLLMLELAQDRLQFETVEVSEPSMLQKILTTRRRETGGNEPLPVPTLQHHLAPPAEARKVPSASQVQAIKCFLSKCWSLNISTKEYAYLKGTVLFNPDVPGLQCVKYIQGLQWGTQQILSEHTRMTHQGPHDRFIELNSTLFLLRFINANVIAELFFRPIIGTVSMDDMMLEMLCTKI
# [10] = molecular target: Paired box protein Pax-8 (Homo sapiens, UniProt Q06710); test: inhibitors of PAX8-driven TPO luciferase reporter, dose response, RMG-I cells, cherry-pick (AID 687027); format: functional, cell-based;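 further: luciferase reporter driven by Pax8 target thyroperoxidase promoter measured by SteadyGlo luminescence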
# [11] = NIH:OVCAR-3 ovarian cancer cell cytotoxicity, dose response, PAX8 inhibitor project, plate reader, dry powder samples (AID 743044); format: functional, cell-based
# [12] = non-specific cell cytotoxicity, dose response, cytotoxicity control for PAX8 inhibitor project, plate reader, dry powder samples (AID 743021); format: functional, cell-based
# [13] = cytotoxicity in OVCAR8 ovarian cancer cells, dose response, PAX8 project, cell-based, plate reader, dry powder samples (AID 743197); format: functional; conditions: OVCAR-8
# [14] = molecular target: Beta-galactosidase (Escherichia coli, UniProt Q8VNN2); test: Dose response counterscreen for EBI2 assay utilizing the enzyme, b-galactosidase.; format: functional
# Beta-galactosidase, sequence (Q8VNN2 whole entry): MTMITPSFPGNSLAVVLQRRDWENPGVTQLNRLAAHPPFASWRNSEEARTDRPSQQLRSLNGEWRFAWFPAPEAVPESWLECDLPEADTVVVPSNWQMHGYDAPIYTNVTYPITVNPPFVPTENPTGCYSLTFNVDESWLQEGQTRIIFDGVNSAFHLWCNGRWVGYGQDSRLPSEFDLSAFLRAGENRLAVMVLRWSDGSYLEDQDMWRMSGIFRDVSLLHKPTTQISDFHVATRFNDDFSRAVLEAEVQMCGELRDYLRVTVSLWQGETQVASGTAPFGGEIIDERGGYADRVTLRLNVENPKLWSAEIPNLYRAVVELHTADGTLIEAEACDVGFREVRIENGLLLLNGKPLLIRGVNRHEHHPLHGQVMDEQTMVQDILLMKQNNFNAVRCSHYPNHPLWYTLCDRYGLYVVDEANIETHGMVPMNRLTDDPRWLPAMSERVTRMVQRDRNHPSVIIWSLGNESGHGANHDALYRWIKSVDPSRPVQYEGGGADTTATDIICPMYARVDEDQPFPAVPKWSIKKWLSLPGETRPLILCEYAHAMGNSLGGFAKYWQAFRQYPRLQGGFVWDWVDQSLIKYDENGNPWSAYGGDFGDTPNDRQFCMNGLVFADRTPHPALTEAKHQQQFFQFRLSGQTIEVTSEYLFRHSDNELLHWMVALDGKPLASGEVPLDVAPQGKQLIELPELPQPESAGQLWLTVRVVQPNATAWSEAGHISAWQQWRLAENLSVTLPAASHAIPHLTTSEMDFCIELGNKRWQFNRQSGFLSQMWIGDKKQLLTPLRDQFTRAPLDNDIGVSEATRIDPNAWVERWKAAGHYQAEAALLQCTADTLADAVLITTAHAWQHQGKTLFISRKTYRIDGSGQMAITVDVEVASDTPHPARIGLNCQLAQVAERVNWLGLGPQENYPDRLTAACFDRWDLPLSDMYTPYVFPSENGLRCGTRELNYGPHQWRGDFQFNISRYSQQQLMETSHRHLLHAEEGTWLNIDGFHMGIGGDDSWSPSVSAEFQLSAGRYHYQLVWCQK
# [15] = molecular target: Potassium channel subfamily K member 9 (Homo sapiens, UniProt Q9NPC2); test: TASK3 (KCNK9) channel inhibitors, thallium flux, SAR follow-up, selectivity assay for TASK1 inhibitor project, cell-based, FluxOR thallium flux, concentration-response (AID 652211); format: functional;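 further: potency is for inhibitors of the channel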
# Potassium channel subfamily K member 9, sequence (Q9NPC2 whole entry): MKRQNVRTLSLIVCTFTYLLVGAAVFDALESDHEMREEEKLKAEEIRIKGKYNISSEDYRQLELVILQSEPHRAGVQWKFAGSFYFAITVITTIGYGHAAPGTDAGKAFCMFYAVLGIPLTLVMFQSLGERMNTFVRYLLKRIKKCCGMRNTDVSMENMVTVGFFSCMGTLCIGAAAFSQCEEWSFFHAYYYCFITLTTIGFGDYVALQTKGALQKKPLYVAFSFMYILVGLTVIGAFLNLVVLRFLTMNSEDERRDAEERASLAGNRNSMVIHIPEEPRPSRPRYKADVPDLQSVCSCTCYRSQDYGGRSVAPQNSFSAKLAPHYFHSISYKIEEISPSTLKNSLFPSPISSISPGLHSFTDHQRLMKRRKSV
# [16] = molecular target: Potassium channel subfamily K member 3 (Homo sapiens, UniProt O14649); test: TASK1 (KCNK3) potassium channel inhibitors, SAR follow-up, CHO cells, FluxOR thallium flux (AID 652212); format: functional
# Potassium channel subfamily K member 3, sequence (O14649 whole entry): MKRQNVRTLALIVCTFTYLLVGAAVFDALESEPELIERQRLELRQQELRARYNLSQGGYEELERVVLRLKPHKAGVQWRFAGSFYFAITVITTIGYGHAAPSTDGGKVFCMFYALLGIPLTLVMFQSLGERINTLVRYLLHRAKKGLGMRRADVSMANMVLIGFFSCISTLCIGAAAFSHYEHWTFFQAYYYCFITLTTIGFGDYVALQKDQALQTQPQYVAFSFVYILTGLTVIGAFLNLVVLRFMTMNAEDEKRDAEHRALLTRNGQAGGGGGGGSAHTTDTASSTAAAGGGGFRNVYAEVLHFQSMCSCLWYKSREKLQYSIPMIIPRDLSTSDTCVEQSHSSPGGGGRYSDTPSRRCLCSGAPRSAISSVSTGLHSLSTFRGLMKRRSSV
# [17] = molecular target: T1, DNA repair and recombination protein RAD54-like (Homo sapiens, UniProt Q92698); test: inhibitors of human RAD54 branch migration, confirmation, biochemical, fluorescence, cherry-picked samples, dose series (AID 651657); format: functional
# T1 sequence (Q92698 whole entry): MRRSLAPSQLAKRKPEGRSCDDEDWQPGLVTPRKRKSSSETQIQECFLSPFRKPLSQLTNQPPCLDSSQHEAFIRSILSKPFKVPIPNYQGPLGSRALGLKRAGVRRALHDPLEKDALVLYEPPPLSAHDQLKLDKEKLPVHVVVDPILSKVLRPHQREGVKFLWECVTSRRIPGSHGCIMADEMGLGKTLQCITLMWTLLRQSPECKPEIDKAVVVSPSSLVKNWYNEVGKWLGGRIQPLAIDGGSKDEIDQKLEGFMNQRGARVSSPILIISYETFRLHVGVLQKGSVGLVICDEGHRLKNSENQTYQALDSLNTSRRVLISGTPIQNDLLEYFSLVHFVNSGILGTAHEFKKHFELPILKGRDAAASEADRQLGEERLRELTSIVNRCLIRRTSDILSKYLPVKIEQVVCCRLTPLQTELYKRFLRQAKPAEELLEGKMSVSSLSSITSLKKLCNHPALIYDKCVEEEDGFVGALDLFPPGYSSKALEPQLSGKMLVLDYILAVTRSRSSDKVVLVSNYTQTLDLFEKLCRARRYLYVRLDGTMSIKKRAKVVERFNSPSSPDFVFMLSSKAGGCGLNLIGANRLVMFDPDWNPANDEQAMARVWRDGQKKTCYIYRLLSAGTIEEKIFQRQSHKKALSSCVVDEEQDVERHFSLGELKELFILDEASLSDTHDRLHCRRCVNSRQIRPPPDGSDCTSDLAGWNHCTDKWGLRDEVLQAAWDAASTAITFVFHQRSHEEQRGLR
# [18] = cells; conditions: A549
# [19] = A Cell-Based Confirmatory Screen for Compounds that Inhibit VEEV, TC-83 (8).; format: functional
# [20] = A Cell-Based Confirmatory Screen for Compounds that Inhibit VEEV, TC-83 (6).; format: functional
# [21] = cells; format: functional, cell-based; remark: listed apart in the source
# [22] = molecular target: T2, Trace amine-associated receptor 1 (Homo sapiens, UniProt Q96RJ0); test: Fluorescence-based cell-based high throughput dose response assay to identify agonists of the human trace amine associated receptor 1 (TAAR1).; format: functional
# T2 sequence (Q96RJ0 whole entry): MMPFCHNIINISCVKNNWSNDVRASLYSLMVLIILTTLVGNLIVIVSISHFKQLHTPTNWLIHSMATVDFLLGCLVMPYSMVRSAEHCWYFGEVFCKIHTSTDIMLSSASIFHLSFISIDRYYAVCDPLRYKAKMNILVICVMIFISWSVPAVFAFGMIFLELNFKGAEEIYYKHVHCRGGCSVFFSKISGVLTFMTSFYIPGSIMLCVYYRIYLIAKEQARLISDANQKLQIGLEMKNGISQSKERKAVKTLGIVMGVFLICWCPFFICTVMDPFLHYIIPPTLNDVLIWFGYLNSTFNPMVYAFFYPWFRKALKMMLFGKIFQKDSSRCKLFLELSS
# [23] = molecular target: T2, Trace amine-associated receptor 1; test: Counterscreen for agonists of the human trace amine associated receptor 1 (hTAAR1): Fluorescence-based cell-based high throughput dose response assay to identify hTAAR1 agonist that also desensitize TAAR1 receptor response.; format: functional
# [24] = cells; format: functional, cell-based; remark: listed apart in the source
# [25] = Luminescence Cell-Based Dose Response to Identify Activators of 5'UTR Stem-Loop Driven Prion Protein mRNA Translation in H4-C Neuroglioblastoma Cells. [Related pubchem assays: 1829 (Project Summary), 1814 (Primary HTS)]; format: functional
# [26] = Luminescence Cell-Based Dose Response HTS to Identify Activators of Luciferase Translation or Activity in H4 […] Cells. [Related pubchem assays: 1829 (Project Summary), 1814 (Primary HTS)]; format: functional
# [27] = test system: H4; test: Luminescence Cell-Based Dose Response HTS to Identify Activators of 5'UTR Stem-Loop Driven Prion Protein mRNA Translation in H4 Neuroglioblastoma Cells. [Related pubchem assays: 1829 (Project Summary), 1814 (Primary HTS)]; format: functional; conditions: Homo sapiens
# [28] = Luminescence Cell-Based Dose Response to Identify Activators of Luciferase Translation or Activity in H4-C Neuroglioblastoma Cells. [Related pubchem assays: 1829 (Project Summary), 1814 (Primary HTS)]; format: functional
# [29] = Luminescence Cell-Based Dose Confirmation to Identify Activators of 5'UTR Stem-Loop Driven Alpha-Synuclein mRNA Translation in H4 Neuroglioblastoma Cells. [Related pubchem assays: 1829 (Project Summary), 1814 (Primary HTS)]; format: functional
# [30] = Counterscreen for […] of the human trace amine associated receptor 1 (TAAR1): Fluorescence-based cell-based high throughput dose response assay to identify nonselective Ga16 agonists.; format: functional
# [31] = molecular target: T2, Trace amine-associated receptor 1; test: Fluorescence-based cell-based high throughput dose response assay to identify antagonists of the human trace amine associated receptor 1 (TAAR1).; format: functional
# [32] = Counterscreen for antagonists of the human trace amine associated receptor 1 (hTAAR1): Fluorescence-based cell-based high throughput dose response assay to identify nonselective Ga16 antagonists.; format: functional
# [33] = molecular target: T2, Trace amine-associated receptor 1; test: Counterscreen for antagonists of the human trace amine associated receptor 1 (hTAAR1): Fluorescence-based cell-based high throughput dose response assay to identify TAAR1 Agonists.; format: functional
# [34] = human group III sPLA2 inhibitors, dose response, biochemical, QFRET, IC50 (AID 743457);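 further: green fluorescence rise as the enzyme cleaves BODIPY PC-A2 in liposomes; potency for inhibition of the enzyme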
# [35] = molecular target: Metabotropic glutamate receptor 3 (Rattus norvegicus, UniProt P31422); test: mGlu3 NAM potency via calcium readout, dose response, mGlu3 NAM project, TREx293 cells, Galpha15, calcium flux (AID 651840); format: functional
# [36] = molecular target: Disintegrin and metalloproteinase domain-containing protein 17 (Homo sapiens, UniProt P78536); test: exosite inhibitors of ADAM17, dose response, biochemical (AID 743260)
# [37] = ADAM10 protease inhibitors, dose response, selectivity assay for ADAM17 exosite inhibitor project, biochemical, FRET peptide substrate, recombinant human ADAM10 (AID 743259);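 further: ADAM10 enzyme cleaving a FRET peptide substrate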
# [38] = molecular target: Glucose-6-phosphate 1-dehydrogenase (Homo sapiens, UniProt P11413); test: human G6PD enzyme inhibitors, dose response, selectivity assay for P. falciparum G6PD inhibitor project, biochemical, fluorescence (AID 504792); format: functional
# [39] = molecular target: 1-phosphatidylinositol 4,5-bisphosphate phosphodiesterase gamma-1 (Homo sapiens, UniProt P19174); test: Counterscreen for inhibitors of phospholipase C isozymes (PLC-B3): Fluorescence-based biochemical high throughput dose response assay to identify inhibitors of phospholipase C isozymes (PLC-gamma1).
# 1-phosphatidylinositol 4,5-bisphosphate phosphodiesterase gamma-1, sequence (P19174 whole entry): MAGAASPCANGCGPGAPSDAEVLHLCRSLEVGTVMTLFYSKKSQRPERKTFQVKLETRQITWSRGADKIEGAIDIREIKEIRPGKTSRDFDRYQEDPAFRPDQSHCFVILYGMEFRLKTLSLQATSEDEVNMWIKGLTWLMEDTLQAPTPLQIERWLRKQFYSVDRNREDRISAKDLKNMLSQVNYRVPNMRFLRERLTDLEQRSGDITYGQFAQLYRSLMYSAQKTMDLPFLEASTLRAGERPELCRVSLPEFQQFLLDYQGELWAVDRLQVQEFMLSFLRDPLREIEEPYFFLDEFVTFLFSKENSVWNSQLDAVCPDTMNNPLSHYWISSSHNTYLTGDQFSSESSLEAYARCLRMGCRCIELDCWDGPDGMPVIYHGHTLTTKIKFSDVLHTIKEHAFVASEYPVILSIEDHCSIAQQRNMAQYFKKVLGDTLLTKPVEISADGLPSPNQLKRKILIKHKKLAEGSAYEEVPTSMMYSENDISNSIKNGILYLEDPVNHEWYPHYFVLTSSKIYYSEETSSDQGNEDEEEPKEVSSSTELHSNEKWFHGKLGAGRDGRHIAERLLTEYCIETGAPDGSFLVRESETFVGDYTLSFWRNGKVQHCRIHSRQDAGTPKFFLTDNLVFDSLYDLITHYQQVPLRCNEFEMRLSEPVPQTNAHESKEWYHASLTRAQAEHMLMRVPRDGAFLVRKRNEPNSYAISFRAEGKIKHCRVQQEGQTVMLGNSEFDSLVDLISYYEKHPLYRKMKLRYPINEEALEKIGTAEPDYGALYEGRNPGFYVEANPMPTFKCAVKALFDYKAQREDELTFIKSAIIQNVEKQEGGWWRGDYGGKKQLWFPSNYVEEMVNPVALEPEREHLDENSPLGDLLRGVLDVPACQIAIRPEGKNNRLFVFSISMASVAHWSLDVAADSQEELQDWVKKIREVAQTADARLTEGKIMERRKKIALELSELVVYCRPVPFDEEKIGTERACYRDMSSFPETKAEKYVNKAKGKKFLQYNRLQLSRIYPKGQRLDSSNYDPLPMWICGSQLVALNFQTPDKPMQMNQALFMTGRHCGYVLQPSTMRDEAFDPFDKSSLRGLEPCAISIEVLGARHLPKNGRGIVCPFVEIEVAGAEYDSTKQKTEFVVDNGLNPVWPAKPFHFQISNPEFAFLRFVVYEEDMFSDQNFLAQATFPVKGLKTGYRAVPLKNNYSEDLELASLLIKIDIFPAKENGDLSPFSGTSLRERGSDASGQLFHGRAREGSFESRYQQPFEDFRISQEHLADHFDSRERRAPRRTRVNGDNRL
# [40] = molecular target: 1-phosphatidylinositol 4,5-bisphosphate phosphodiesterase beta-3 (Homo sapiens, UniProt Q01970); test: Fluorescence-based biochemical high throughput dose response assay to identify inhibitors of phospholipase C isozymes (PLC-B3).
# 1-phosphatidylinositol 4,5-bisphosphate phosphodiesterase beta-3, sequence (Q01970 whole entry): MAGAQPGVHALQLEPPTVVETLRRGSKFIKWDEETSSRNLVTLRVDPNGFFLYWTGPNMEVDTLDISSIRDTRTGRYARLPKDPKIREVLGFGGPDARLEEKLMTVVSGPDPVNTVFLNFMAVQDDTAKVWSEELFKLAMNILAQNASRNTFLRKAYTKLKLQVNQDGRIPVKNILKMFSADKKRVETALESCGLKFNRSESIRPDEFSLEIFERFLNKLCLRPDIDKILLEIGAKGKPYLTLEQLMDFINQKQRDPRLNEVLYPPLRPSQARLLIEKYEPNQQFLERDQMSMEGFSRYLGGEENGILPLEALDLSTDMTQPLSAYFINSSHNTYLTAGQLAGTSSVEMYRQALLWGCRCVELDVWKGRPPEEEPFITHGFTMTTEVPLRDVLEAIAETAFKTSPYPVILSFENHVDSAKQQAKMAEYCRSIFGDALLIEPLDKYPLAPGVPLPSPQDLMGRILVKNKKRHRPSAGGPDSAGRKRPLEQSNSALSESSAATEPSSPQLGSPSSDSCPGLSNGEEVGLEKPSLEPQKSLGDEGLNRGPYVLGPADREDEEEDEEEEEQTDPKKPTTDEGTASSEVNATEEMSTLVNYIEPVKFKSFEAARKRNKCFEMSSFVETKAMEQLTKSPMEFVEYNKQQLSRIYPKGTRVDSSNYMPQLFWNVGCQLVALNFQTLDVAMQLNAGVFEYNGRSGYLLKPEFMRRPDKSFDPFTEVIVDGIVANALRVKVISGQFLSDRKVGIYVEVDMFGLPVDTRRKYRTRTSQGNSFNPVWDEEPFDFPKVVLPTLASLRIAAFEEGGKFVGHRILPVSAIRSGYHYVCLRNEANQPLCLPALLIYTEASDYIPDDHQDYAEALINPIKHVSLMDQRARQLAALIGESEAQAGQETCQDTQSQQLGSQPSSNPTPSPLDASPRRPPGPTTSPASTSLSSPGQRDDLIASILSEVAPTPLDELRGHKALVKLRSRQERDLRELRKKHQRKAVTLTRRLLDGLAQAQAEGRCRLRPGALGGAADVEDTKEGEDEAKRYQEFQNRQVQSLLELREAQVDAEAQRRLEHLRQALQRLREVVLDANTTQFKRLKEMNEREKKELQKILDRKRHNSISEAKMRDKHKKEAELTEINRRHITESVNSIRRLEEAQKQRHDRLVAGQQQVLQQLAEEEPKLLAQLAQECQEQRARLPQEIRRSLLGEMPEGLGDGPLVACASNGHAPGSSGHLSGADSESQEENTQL
# [41] = molecular target: Fructose-bisphosphate aldolase (Mycobacterium tuberculosis, UniProt P9WQA3); test: Fluorescence-based biochemical high throughput dose response assay for inhibitors of the fructose-bisphosphate aldolase (FBA) of M. tuberculosis.; format: functional
compound,measurement,setting,value
COc1cc(CN2C[C@@H]3N[C@H](C2)[C@H]3c2ccc(-c3ccc(C#N)cc3)cc2)cc(OC)c1,AC50,[1],24.3 µM (active)
same,AC50,[2],1.33 µM (active)
same,AC50,[3],8.15 µM (active)
COc1cccc(C(=O)Nc2ccc3c(c2)C(=O)N(C)C[C@H](OC)[C@@H](C)CN(CCc2ccccc2)[C@@H](C)CO3)c1,AbsAC35,[4],55.16 µM
same,AbsAC35,[5],50.41 µM
same,AbsAC35,[6],39.75 µM
same,AbsAC35,[7],44.38 µM
CC1CCc2sc(C(=O)NC(C)C3CCCO3)cc2C1 (stereo unspecified),IC50,[8],> 67.5 µM (inactive)
same,IC50,[9],> 67.5 µM (inactive)
C[C@@H]1CN([C@H](C)CO)C(=O)c2cc(NS(=O)(=O)c3ccc(F)cc3)ccc2O[C@@H](C)CCCCO[C@@H]1CN(C)Cc1ccccc1,AC50,[10],7.31 µM (active)
same,AC50,[11],21.1 µM (active)
same,AC50,[12],2.88 µM (active)
same,AC50,[13],39.4 µM (active)
CN(Cc1ccccc1)C(=O)COc1ccc2ccccc2c1,IC50,[14],> 80 µM (inactive)
COc1ccccc1NC(=O)c1cccc(NC(=O)C2CCCCC2)c1,IC50,[15],2.16 µM (active)
same,IC50,[16],86 nM (active)
Cc1nc2ccccc2c2oc(C(=O)NCCCN3CCC(C)CC3)cc12,AC50,[17],36.5 µM (active)
same,AC50,[18],> 52 µM (inactive)
O=c1c2cc([N+](=O)[O-])ccc2nc(CN2CCNCC2)n1-c1ccsc1,IC50,[19],1.74 µM (active)
same,IC50,[20],1.74 µM (active)
O=C(O)C1C2CCC(C2)C1C(=O)NCCc1cccc(Cl)c1 (stereo unspecified),IC50,[21],> 29.9 µM (inactive)
same,EC50,[22],2.58 µM (active)
same,IC50,[23],> 29.9 µM (inactive)
same,EC50,[24],> 29.9 µM (inactive)
Cc1cc(/C=C(\C#N)C(=O)NCc2cccs2)c(C)n1-c1ccccc1F,EC50,[25],952 nM (active)
same,EC50,[26],< 100 nM (active)
same,EC50,[27],61 µM (active)
same,EC50,[28],225 nM (active)
same,EC50,[29],472 nM (active)
same,EC50,[30],> 29.9 µM (inactive)
same,IC50,[31],3.75 µM (active)
same,IC50,[32],> 29.9 µM (inactive)
same,EC50,[33],> 29.9 µM (inactive)
CCCCCC(=O)NNC(=S)NC(=O)c1ccccc1[N+](=O)[O-],IC50,[34],> 122 µM (inactive)
COc1ccc(C#Cc2ccc(C(=O)N3CCC[C@@H](O)C3)cc2F)cc1,IC50,[35],402 nM
COC(=O)c1c(C)n(-c2ccc(OC)cc2)c2ccc(O)cc12,IC50,[36],> 69.5 µM (inactive)
same,IC50,[37],> 69.5 µM (inactive)
Cn1cc(S(=O)(=O)CC(=O)N2CCc3ccccc32)c2ccccc21,IC50,[38],> 80 µM (inactive)
same,IC50,[39],> 122 µM (inactive)
same,IC50,[40],> 122 µM (inactive)
COc1ccc2oc(=O)c(C(=O)NCc3ccccn3)cc2c1,IC50,[41],1.53 µM (active)
